The text below walks through data of patent US20150259371A1, “METHODS AND COMPOUNDS FOR INHIBITING GLYCOSYLTRANSFERASES” (SIMON FRASER UNIVERSITY, priority 2010, published 2015).

Assay [1] has as its system transcription factor Sp1. The experiment in a line: Western blot of Sp1 levels in CHO cells. Type of assay: cell-based, Chinese hamster. The conditions noted are these: 50 μM, 4 days. How it is done:
(A) Cell proliferation curves over the course of 5 days for CHO cells following no (circles), 50 μM Ac-GlcNAc (squares) or 50 μM Ac-5SGlcNAc (triangles) treatment. The error bars indicate the deviation from the mean for triplicate measurements. […] Upper panel, probed with anti-O-GlcNAc antibody (CTD110.6); lower panel, probed with anti-actin antibody. (B) Cell proliferation curves over the course of 5 days for EMEG heterozygous mouse embryonic fibroblast cells following no (circles), 50 μM Ac-GlcNAc (squares) or 50 μM Ac-5SGlcNAc (triangles) treatment. The error bars indicate the deviation from the mean for triplicate measurements. […] Upper panel, probed with anti-O-GlcNAc antibody (CTD110.6); lower panel, probed with anti-actin antibody. (C) Western blots of CHO cell lysates following no (C) or Ac-5SGlcNAc administration at 50 μM for 4 days. Probed with (from top to bottom) anti-Spl antibody, anti O-GlcNAc (CTD110.6) antibody and anti-actin antibody. Full blot of the anti-Sp 1 is shown in panel (d). […]
Cellular responses to Ac-5SGlcNAc (9) treatment and consequent decreases in O-GlcNAc levels were evaluated. […] We quantitatively evaluated cell proliferation and established growth curves over the course of 5 days in both CHO and EMEG32 heterozygous mouse embryonic fibroblast cells treated with 50 μM Ac-5SGlcNAc (9), 50 μM Ac-GlcNAc (G), or vehicle (FIGS. 5A-B).

For assay [2], the system named is O-GlcNAc levels in mice tissues. In words: O-GlcNAc levels in mouse tissues after intraperitoneal dosing. Type of assay: in vivo. As to conditions: 300 mg/kg intraperitoneally, 16 hours. How it is done: Ac-5SGlcNAc 9 and the deprotected analogue with the hexyl substituent at the C2 position 28 have been analyzed for effectiveness at decreasing O-GlcNAc levels in mice. Pilot studies were conducted with mice dosed in triplicate with either compound or vehicle alone. Compounds were dosed at 300 mg/kg intraperitoneally using 75% DMSO as vehicle for delivery of 9 and phosphate-buffered saline (PBS) for delivery of 28. Mice were euthanized using a CO2 chamber after 16 hours exposure to either compound, and tissues (liver, lung, heart, kidney, spleen, pancreas, brain, blood, fat and muscle) harvested and flash frozen in liquid nitrogen. Frozen tissues were ground using a pestle and mortar, and resuspended in cell lysis buffer (50 mM NaH2PO4, 150 mM NaCl, 0.1% SDS, 1% NP-40, 0.25% sodium deoxycholate, 1 mM EDTA, 30 mM sodium fluoride, 30 mM β-glycerophosphate, 5 mM sodium pyrophosphate, 1 mM Thiamet-G, protease inhibitor cocktail (Roche)) at a concentration of 100 mg tissue1 mL buffer prior to homogenization. Homogenates were centrifuged at 13,000 rpm for 20 min, the supernatant removed, added to 2×SDS-PAGE loading buffer and boiled for […]. SDS-PAGE and western blots were performed using standard procedures. Blots were probed using anti-O-GlcNAc antibody (CTD110.6, Santa Cruz Biotechnology) and anti-actin antibody for a loading control.

Assay [3] relates to OGA. In words: Western blot of OGA levels in treated COS-7 cells. As to conditions: 50 μM, 24 h. Type of assay: cell-based, African green monkey. How it is done: Westernlectin blots: Samples were run on 10% SDS polyacrylamide gels and transferred onto nitrocellulose membranes (Biorad). Membranes were blocked for 1 h in PBS containing 0.1% Tween-20 (PBS-T) containing 1% (unless otherwise stated) bovine serum albumin (BSA), and probed with the appropriate primary antibody or lectin in 1% BSA in PBS-T overnight at 4° C. Blots were washed for 1 hr with PBS-T, and blocked for a further 30 min with 1% BSA in PBS-T at room temperature. They were then probed with the appropriate horseradish peroxidise (HRP)-conjugated secondary antibodyprobe in 1% BSA in PBS-T at room temperature for 1 h, followed by washing in PBS-T for 1 h. Blots were developed with SuperSignal West Pico Chemiluminescent Substrate (Pierce) and exposed to CL-XPosure film (Pierce). Densitometry was performed using ImageQuant 5.2 (Molecular Dynamics), and fits to the data were made using GRAFIT^41.
Antibodieslectins: O-GlcNAc levels were assessed primarily using CTD110.6 (Covance), but RL2 (Abcam) and HGAC85 (Abcam) were also tested. Actin was probed using JLA20 (Developmental Studies Hybridoma Bank). OGA levels were assessed using a polyclonal anti-OGA antibody which was a kind gift from Dr. Gerald Hart and OGT levels using H-300 (Santa Cruz Biotechnology). nup62 was probed using mAb 414 (Covance). […]

For assay [4], the system named is O-GlcNAc levels in CHO cells. In words: Western blot of O-GlcNAc levels (CTD110.6) in treated CHO cells. Type of assay: cell-based, Chinese hamster. On the procedure: Cell culture: Cells were grown in an incubator at 37° C. and 5% CO2 atmosphere. Media and serum were purchased from Invitrogen. COS-7 cells were cultured in Dulbecco's modified Eagle's medium (DMEM) with 5% fetal bovine serum (FBS), and were typically 80-100% confluent prior to experimentation. HepG2, SK-N-SH, and EMEG32^−/− cells were cultured in Dulbecco's modified Eagle's medium (DMEM) with 5% fetal bovine serum (FBS), CHO cells in DMEMF-12 with 5% FBS and PC12 cells in DMEM with 5% FBS and 5% horse serum. Prior to experimentation, PC12 cells were plated at a density of 3-4×10^5 cells10 cm plate, which had been pre-treated with 5 μgcm^2 rat tail collagen (BD Biosciences). Cells were differentiated in DMEM containing 1% horse serum, in the presence of 2.5S mouse nerve growth factor (Chemicon) at a final concentration of 25 ng mL^−1, for 4-5 days prior to treatment. Other cell lines were 80-100% confluent prior to treatment. […]
Antibodieslectins: O-GlcNAc levels were assessed primarily using CTD110.6 (Covance), but RL2 (Abcam) and HGAC85 (Abcam) were also tested. […] OGA levels were assessed using a polyclonal anti-OGA antibody which was a kind gift from Dr. Gerald Hart and OGT levels using H-300 (Santa Cruz Biotechnology). nup62 was probed using mAb 414 (Covance). […]

For orientation: EC50 means the concentration needed to bring the measured effect to its halfway point. `CC(=O)NC1C(OC(C)=O)SC(COC(C)=O)C(OC(C)=O)C1OC(C)=O` [Compound 9, N-Acetyl-1,3,4,6-tetra-O-acetyl-α-D-5-thio-glucosamine]: the Sp1 levels entry in assay [1] is “decreases were observed in the levels of transcription factor Sp1”. Besides, the “O-GlcNAc levels in tissues” value in assay [2] was “effective at decreasing O-GlcNAc levels during the 16 hour dosing period in the liver, lung, heart, kidney, spleen, pancreas, fat and muscle”. Also, the OGA levels entry in assay [3] is “compensatory decrease in OGA levels”. Also, the “O-GlcNAc levels at last time point of growth curve” value in assay [4] (50 μM, 5 days) is recorded as “O-GlcNAc levels are still significantly decreased in cells treated with Ac-5SGlcNAc”. For the same compound, the EC50 in assay [4] (Cricetulus griseus, 24 h, read-out: EC50 for reduction of O-GlcNAc levels) stood at 800 nM.
